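Compound exposure: 48 hours, 5 concentrations, 96-well plates. GI50: concentration for 50% inhibition of growth.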 Calls of active or inactive are those of the source. Rule as the data show it: active = GI50 up to about 1.1 µM and inactive = higher.
Legend:
Assay in all cases: NCI tumour cell line growth inhibition, 48 h
786-0 = tested on: 786-0
TK-10 = tested on: TK-10
A549 = tested on: A549
M14 = tested on: M14
SNB-78 = tested on: SNB-78
RPMI-8226 = tested on: RPMI-8226
HL-60 = tested on: HL-60
CAKI-1 = tested on: CAKI-1
CCRF-CEM = tested on: CCRF-CEM
SK-MEL-2 = tested on: SK-MEL-2
RXF 631 = tested on: RXF 631
UACC-62 = tested on: UACC-62
LXFL 529 = tested on: LXFL 529
UO-31 = tested on: UO-31
OVCAR-3 = tested on: OVCAR-3
SF-539 = tested on: SF-539
SF-295 = tested on: SF-295
DLD-1 = tested on: DLD-1
MOLT-4 = tested on: MOLT-4
ACHN = tested on: ACHN
HOP-18 = tested on: HOP-18
U-251 = tested on: U-251
EKVX = tested on: EKVX
OVCAR-8 = tested on: OVCAR-8
HCT-116 = tested on: HCT-116
DMS-114 = tested on: DMS-114
SK-MEL-28 = tested on: SK-MEL-28
Malme-3M = tested on: Malme-3M
KM-20L2 = tested on: KM-20L2
HCT-15 = tested on: HCT-15
NCI-H226 = tested on: NCI-H226
IGROV-1 = tested on: IGROV-1
DMS-273 = tested on: DMS-273
OVCAR-5 = tested on: OVCAR-5
SF-268 = tested on: SF-268
OVCAR-4 = tested on: OVCAR-4
SK-MEL-5 = tested on: SK-MEL-5
RXF 393 = tested on: RXF 393
A498 = tested on: A498
SK-OV-3 = tested on: SK-OV-3
SNB-19 = tested on: SNB-19
KM12 = tested on: KM12
COLO 205 = tested on: COLO 205
SW-620 = tested on: SW-620
M19-MEL = tested on: M19-MEL
SNB-75 = tested on: SNB-75
LOX IMVI = tested on: LOX IMVI
HCC 2998 = tested on: HCC 2998
K562 = tested on: K562
HOP-92 = tested on: HOP-92
NCI-H522 = tested on: NCI-H522
NCI-H23 = tested on: NCI-H23
UACC-257 = tested on: UACC-257
SN12C = tested on: SN12C
HT-29 = tested on: HT-29

SMILES: COC(=O)/C=c1\s/c(=C\C(=O)OC)c2ccccc12
- GI50 (786-0): > 100 µM (inactive)
- GI50 (TK-10): > 100 µM (inactive)
- GI50 (A549): > 100 µM (inactive)
- GI50 (M14): > 100 µM (inactive)
- GI50 (SNB-78): > 100 µM (inactive)
- GI50 (RPMI-8226): > 100 µM (inactive)
- GI50 (HL-60): > 100 µM (inactive)
- GI50 (CAKI-1): > 100 µM (inactive)
- GI50 (CCRF-CEM): > 100 µM (inactive)
- GI50 (SK-MEL-2): > 100 µM (inactive)
- GI50 (RXF 631): > 100 µM (inactive)
- GI50 (UACC-62): > 100 µM (inactive)
- GI50 (LXFL 529): > 100 µM (inactive)
- GI50 (UO-31): 89.1 µM (inactive)
- GI50 (OVCAR-3): > 100 µM (inactive)
- GI50 (SF-539): > 100 µM (inactive)
- GI50 (SF-295): > 100 µM (inactive)
- GI50 (DLD-1): 6.28 µM (inactive)
- GI50 (MOLT-4): > 100 µM (inactive)
- GI50 (ACHN): > 100 µM (inactive)
- GI50 (HOP-18): > 100 µM (inactive)
- GI50 (U-251): > 100 µM (inactive)
- GI50 (EKVX): > 100 µM (inactive)
- GI50 (OVCAR-8): > 100 µM (inactive)
- GI50 (HCT-116): > 100 µM (inactive)
- GI50 (DMS-114): > 100 µM (inactive)
- GI50 (SK-MEL-28): > 100 µM (inactive)
- GI50 (Malme-3M): > 100 µM (inactive)
- GI50 (KM-20L2): > 100 µM (inactive)
- GI50 (HCT-15): 33.8 µM
- GI50 (NCI-H226): 57.8 µM (inactive)
- GI50 (IGROV-1): > 100 µM (inactive)
- GI50 (DMS-273): 6.44 µM (inactive)
- GI50 (OVCAR-5): > 100 µM (inactive)
- GI50 (SF-268): > 100 µM (inactive)
- GI50 (OVCAR-4): > 100 µM (inactive)
- GI50 (SK-MEL-5): > 100 µM (inactive)
- GI50 (RXF 393): > 100 µM (inactive)
- GI50 (A498): > 100 µM (inactive)
- GI50 (SK-OV-3): > 100 µM (inactive)
- GI50 (SNB-19): > 100 µM (inactive)
- GI50 (KM12): 11.7 µM (inactive)
- GI50 (COLO 205): > 100 µM (inactive)
- GI50 (SW-620): > 100 µM (inactive)
- GI50 (M19-MEL): > 100 µM (inactive)
- GI50 (SNB-75): 27.9 µM (inactive)
- GI50 (LOX IMVI): > 100 µM (inactive)
- GI50 (HCC 2998): > 100 µM (inactive)
- GI50 (K562): > 100 µM (inactive)
- GI50 (HOP-92): > 100 µM (inactive)
- GI50 (NCI-H522): > 100 µM (inactive)
- GI50 (NCI-H23): > 100 µM (inactive)
- GI50 (UACC-257): > 100 µM (inactive)
- GI50 (SN12C): > 100 µM (inactive)
- GI50 (HT-29): > 100 µM (inactive)
